Paper PMC5478869, “New Hydroxycinnamic Acid Esters as Novel 5-Lipoxygenase Inhibitors That Affect Leukotriene Biosynthesis” (Mediators of Inflammation, 2017)

How the values were obtained:
arachidonic acid release = test: Arachidonic acid release from thapsigargin-stimulated PMNL (GC-MS); assay type: cell-based, human; details: 1 μM compound, 1 μM thapsigargin 5 min, vs control (0.5% DMSO)
Procedure: Quantification of arachidonic acid release from cellular membranes was performed as previously described. Briefly, freshly isolated PMNL (10^7 cells/ml, in HBSS containing 1.6 mM CaCl2 and 0.1% BSA) were incubated with adenosine deaminase (0.3 U/ml) and test compounds for 5 min at 37°C. Stimulation was initiated with the addition of 1 μM thapsigargin, followed by incubation at 37°C for 5 min. The reactions were stopped with the addition of two volumes of cold MeOH and 300 ng of arachidonic acid-d8 (Cayman Chemicals) as internal standard. The samples were stored at −20°C overnight and then centrifuged the next day at 1000 g for 10 min. The supernatants were diluted with four volumes of acidified water (0.1%) then processed on an octadecyl (C18) column. Samples were eluted with the addition of 3 ml of MeOH and dried under nitrogen. Pentafluorobenzylesters were prepared with the addition 50 μl N,N-diisopropylethylamine (20% in acetonitrile) and 50 μl of […] (20% in acetonitrile). Samples were heated for 40 min at 40°C, then dried under nitrogen and resuspended in 100 μl of hexane. Samples were quantified by negative ion chemical ionization gas chromatography/mass spectrometry using TraceGC ultra column (Thermo) and a Polaris Q mass spectrometer (Thermo).
Figure 4 The impact of test compounds on the liberation of arachidonic acid in stimulated PMNL. Human PMNL were incubated with test compounds (1 μM) or their diluent (control, DMSO 0.5%) for 5 min. Stimulation was then initiated with the addition of 1 μM thapsigargin, followed by an incubation at 37°C for 5 min. The reactions were stopped with the addition of two volumes of cold MeOH and 300 ng of arachidonic acid-d8, then samples were stored overnight at −20°C. Free arachidonic acid was first extracted on octadecyl columns, then pentafluorobenzylesters of arachidonic acid were prepared and samples were measured on GC-MS. Spontaneous release of AA was also measured in absence of thapsigargin (nonactivated, NA). ^∗Different from control as determined by one-way ANOVA with Dunnett's multiple comparison test (p < 0.05). Data are expressed as means ± SEM of at least 3 independent experiments.

[1] = biological target: T1, platelet 12-lipoxygenase (12-LO) (Homo sapiens, UniProt P18054); test: Platelet activation (A23187), biosynthesis of 12-HETE; assay type: cell-based; details: 10 μM A23187 5 min
T1 construct: endogenous in cells; host or cells: platelets isolated from platelet-rich plasma
T1 sequence (P18054 1-663): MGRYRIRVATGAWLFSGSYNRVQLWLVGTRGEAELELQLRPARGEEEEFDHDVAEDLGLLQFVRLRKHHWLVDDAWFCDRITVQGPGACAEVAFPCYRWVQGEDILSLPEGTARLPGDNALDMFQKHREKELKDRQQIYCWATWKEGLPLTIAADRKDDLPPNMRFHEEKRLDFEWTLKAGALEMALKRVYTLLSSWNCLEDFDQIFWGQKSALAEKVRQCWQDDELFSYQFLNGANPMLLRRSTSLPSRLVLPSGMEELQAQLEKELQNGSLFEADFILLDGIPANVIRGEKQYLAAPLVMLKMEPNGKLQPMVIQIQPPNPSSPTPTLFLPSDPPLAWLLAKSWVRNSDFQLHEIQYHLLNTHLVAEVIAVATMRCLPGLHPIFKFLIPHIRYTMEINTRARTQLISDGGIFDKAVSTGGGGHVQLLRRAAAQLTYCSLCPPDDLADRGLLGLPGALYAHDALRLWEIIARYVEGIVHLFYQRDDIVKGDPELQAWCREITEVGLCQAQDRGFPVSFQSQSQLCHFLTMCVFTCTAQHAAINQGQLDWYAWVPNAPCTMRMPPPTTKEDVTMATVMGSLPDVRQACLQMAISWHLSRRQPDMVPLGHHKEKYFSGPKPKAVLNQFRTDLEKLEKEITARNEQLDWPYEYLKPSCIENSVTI
Procedure: Polymorphonuclear leukocytes (PMNL) were isolated as previously described. Briefly, whole blood was collected (with anticoagulant citrate dextrose (ACD)) and then centrifuged at 500 g for 10 min. Platelet-rich plasma (PRP) was set aside for platelet isolation (see below), and erythrocytes were removed by dextran sedimentation. After a centrifugation step at 900 g × 20 min at room temperature on a lymphocyte separation medium cushion (density, 1.077 g/ml) (Wisent), PMNL were obtained (>96%) followed by hypotonic lysis of the remaining erythrocytes. PMNL were counted and resuspended at 10^7 cells/ml in HBSS supplemented with 1.6 mM CaCl2. PRP was processed as previously described for platelet isolation. Briefly, PRP was centrifuged at 400 g for 2 min at room temperature to remove the remaining erythrocytes. The supernatant was then centrifuged at 1300g for 10 min to pellet platelets. Cells were resuspended in Tyrode Buffer pH 7.4 (134 mM NaCl, 2.9 mM KCl, 0.34 mM Na2HPO4, 12 mM NaHCO3, 20 mM HEPES, 1 mM MgCl2, 5 mM glucose, and 0.5 mg/ml BSA) at 3 × 10^8 cells/ml in the presence of 5 mM CaCl2.
Platelets (3 × 10^8 cells/ml) were preincubated with various test compounds at indicated concentrations for 5 min at 37°C. Platelet activation was initiated with the addition of 10 μM of calcium ionophore A23187 (Sigma-Aldrich) followed by a 5 min incubation time at 37°C. Reactions were stopped with the addition of two volumes of cold MeOH:MeCN (1 : 1) containing PGB2 (100 ng/ml) as internal standard. Samples were stored overnight at −20°C and were then centrifuged, the supernatant was dried under nitrogen, and the samples were resuspended in 30% methanol and analyzed by RP-HPLC as indicated above.
Figure 5 The inhibitory effects of the test compounds of the biosynthesis of 5-LO products in stimulated whole blood (a) and the biosynthesis of 12-lipoxygenase products in platelets (b). (a) Whole blood was incubated in presence of various compounds (1 μM and 5 μM) or with their diluent (control, DMSO 0.5%) for 5 min, then stimulated with opsonized zymosan (5 mg/ml) for 30 min at 37°C. Blood was then centrifuged and plasma was collected and added to 3.5 volumes of MeOH:CH3CN (1 : 1). Samples were processed for analysis by RP-HPLC for total 5-LO products quantification. Total 5-LO products measured represent the sum of LTB4, its trans isomers, 20-COOH and 20-OH-LTB4, and 5-hydroxyeicosatetraenoic acid. (b) Platelets were incubated for 5 min in presence of test compounds (1 μM and 3 μM) then biosynthesis of 12-HETE was initiated with the addition of 10 μM of calcium ionophore A23187. Reactions were stopped with the addition of two volumes of MeOH:MeCN (1 : 1 v/v). Samples were processed for analysis by RP-HPLC for 12-hydroxyeicosatetraenoic acid (12-HETE) quantification. ^∗Different from control as determined by one-way ANOVA with Dunnett's multiple comparison test (p < 0.05). Data are expressed as means ± SEM of at least 3 independent experiments.
Having identified compounds that inhibit the biosynthesis of lipid mediators generated via the 5-LO pathway, their ability to inhibit platelet 12-lipoxygenase (12-LO) was assessed to determine whether they show specificity.

| Inhibition of biosynthesis of 12-HETE in platelets ([1]; 3 μM compound) | SMILES | Inhibition of cellular arachidonic acid release in stimulated PMNL (arachidonic acid release) | Inhibition of biosynthesis of 12-HETE in platelets ([1]; 1 μM compound) |
| --- | --- | --- | --- |
| near-complete inhibition | O=C(/C=C/c1ccc(O)c(O)c1)OCCc1ccccc1 [CAPE (2), Caffeic acid phenethyl ester, reference compound] | significantly inhibited cellular arachidonic acid release | significantly inhibited the biosynthesis of 12-HETE |
| near-complete inhibition | O=C(/C=C/c1ccc(O)c(O)c1)OCCc1ccc(F)cc1 [Compound 14] | failed to significantly inhibit the release of cellular membrane arachidonic acid | significantly inhibited the biosynthesis of 12-HETE |
| near-complete inhibition | Cc1ccc(CCOC(=O)/C=C/c2ccc(O)c(O)c2)cc1 [Compound 15] | failed to significantly inhibit the release of cellular membrane arachidonic acid | significantly inhibited the biosynthesis of 12-HETE |
| significant inhibition | COc1ccc(CCOC(=O)/C=C/c2ccc(O)c(O)c2)cc1 [Compound 16] | failed to significantly inhibit the release of cellular membrane arachidonic acid | failed to significantly affect the biosynthesis of 12-HETE |

The remaining lines, values behind:

| SMILES | Inhibition of biosynthesis of 12-HETE in platelets ([1]; 3 μM compound) | Inhibition of cellular arachidonic acid release in stimulated PMNL (arachidonic acid release) | Inhibition of biosynthesis of 12-HETE in platelets ([1]; 1 μM compound) |
| --- | --- | --- | --- |
| C=C(C)CCOC(=O)/C=C/c1ccc(O)c(O)c1 [Compound 9] | near-complete inhibition | significantly inhibited cellular arachidonic acid release | significantly inhibited the biosynthesis of 12-HETE |
| O=C(/C=C/c1ccc(O)c(O)c1)OCCCc1ccccc1 [Compound 13] | near-complete inhibition | significantly inhibited cellular arachidonic acid release | significantly inhibited the biosynthesis of 12-HETE |
| O=C(/C=C/c1ccc(O)c(O)c1)OCC(c1ccccc1)c1ccccc1 [Compound 19] | significant inhibition | significantly inhibited cellular arachidonic acid release | failed to significantly affect the biosynthesis of 12-HETE |
